# According to patent US20220195666A1, “USE OF A PLURALITY OF SALT IONIC LIQUIDS IN THE PRETREATMENT OF BIOMASS” (priority 2020, published 2022):
# Test: Thermal gravimetric analysis of the ILs and DSILs
# Format: physicochemical
# Settings: TGA under nitrogen, 10° C./min
# Procedure: Thermal behavior was determined using a Mettler Toledo Stare TGA/DSC1 unit (Mettler Toledo, Leicester, UK) under nitrogen. Samples between 3 and 10 mg were placed in alumina crucibles (70 μL) and heated from room temperature to 75° C. at a heating rate of 10° C./min. An isotherm at 75° C. was maintained for 30 min to eliminate all volatiles, if any. After the isothermal step, the temperature was ramped to 800° C. at a heating rate of 10° C./min. The data was analyzed using STARe Evaluation software.
Compound,T5% (decomposition temperature of 5% sample),T50% (decomposition temperature of 50% sample)
"CCCCCCCC(=O)[O-].C[N+](C)(C)CCO [[Ch][Oct], cholinium octanoate]",180.7 °C,209.5 °C
"C[N+](C)(C)CCO.NCCCC[C@H](N)C(=O)[O-] [[Ch][Lys], cholinium lysinate]",155.9 °C,218.1 °C
"CC(=O)[O-].C[N+](C)(C)CCO [[Ch][Ace], cholinium acetate]",173.1 °C,211.4 °C
"CCCCCCCCCCCCCCCC(=O)[O-].C[N+](C)(C)CCO [[Ch][Pal], cholinium palmitate]",177.7 °C,225.3 °C
